{"source": "ChEMBL document CHEMBL4251673", "about": "“Structurally Diverse Diterpenoids from Sandwithia guyanensis” (J Nat Prod, 2018)", "key": {"Chikungunya virus": {"system": "Chikungunya virus", "experiment": "Antiviral activity against Chikungunya virus Indian Ocean 889 infected in African green monkey Vero cells assessed as inhibition of virus-induced cytopathic effect after 7 days by MTS method", "type": "functional, organism-based", "details": "Indian Ocean 889, Vero, 168 h"}, "[1]": {"experiment": "Selectivity index, ratio of CC50 for African green monkey Vero cells to EC50 for Chikungunya virus Indian Ocean 889 infected in African green monkey Vero cells", "type": "toxicity", "details": "read-out: Ratio CC50/EC50"}}, "data": [{"smiles": "C/C1=C\\[C@@H]2[C@H](CC[C@]3(C)O[C@H]3C3=C(C1=O)[C@@H](O)[C@H](C)C3=O)C2(C)C", "values": [{"measurement": "EC50", "setting": "Chikungunya virus", "value": 14, "unit": "µM"}, {"measurement": "selectivity ratio", "setting": "[1]", "value": 1.92}]}]}
